Laboratory results: patent EP4768487A1, “FUSED LACTAM RING COMPOUND AND USE THEREOF” (Chengdu Zenitar Biomedical Technology Co., Ltd., priority 2023, dated 2025)

Experiments:
[1] = target: T1, PARP1 (Homo sapiens, UniProt P09874); experiment: PARP1 enzyme assay (histone-coated plate, chemiluminescence); type: biochemical; details: PARP1 0.02 nM, DNA 0.8 nM, NAD+ 3.5 µM; read-out: PARP-1 IC50
T1 construct: purchased BPS 80501
Procedure: 1.1.1. Buffer preparation: PBST: 1× PBS, 0.05% Tween-20; blocking buffer: 1× PBS, 0.05% Tween-20, 5% BSA; reaction buffer: 50 mM Tris-HCl (pH 7.5), 0.005% Tween-20, 0.01% BSA.
1.1.2. Coating: A 50 ng/mL Histone coating solution was prepared with 1× PBS and then transferred to a 384-well reaction plate at 25 µL/well. The plate was coated at 4 °C overnight.
1.1.3. Washing: After the coating was completed, the coating solution was discarded, and the plate was washed with the PBST solution. The method was as follows: PBST was transferred to the 384-well reaction plate at 50 µL/well, and the plate was left to stand for 5 min. The washing solution was then discarded, and the plate was refilled. The washing step was repeated 3 times. Finally, the reaction plate was patted dry and left for the next step of blocking.
1.1.4. Blocking: The blocking buffer was transferred to the 384-well reaction plate at 50 µL/well, and the plate was left to stand for 1 h.
Washing: After the blocking was completed, the blocking buffer was discarded, and the plate was washed 3 times with the PBST solution according to the method in step 2. Finally, the reaction plate was patted dry.
1.1.5. A 1000-fold solution of a compound was prepared and then transferred at 1 µL/well to a 96-well plate containing 199 µL of the reaction buffer. The mixture was well mixed, and then the well mixed compound solution was transferred to the 384-well reaction plate at 5 µL/well. 1.1.6. A 25/10-fold PARP1-DNA solution was prepared with the reaction buffer and then transferred to the 384-well reaction plate at 10 µL/well. For the negative control wells, 10 µL
of the DNA solution was transferred. The final concentrations of PARP1 and DNA were 0.02 nM and 0.8 nM, respectively.
1.1.9. Washing: After the reaction was completed, the reaction solution was discarded, and the plate was washed 3 times with the PBST solution according to the method in step 2. Finally, the reaction plate was patted dry.
1.1.10. A primary antibody (anti-Poly/Mono-ADP Ribose Rabbit mAb) was diluted 2000-fold with the blocking buffer and then added at 20 µL/well.
1.1.11. Washing: The primary antibody was discarded, and the plate was washed 3 times with the PBST solution according to the method in step 2. Finally, the reaction plate was patted dry.
1.1.12. A secondary antibody (anti-rabbit IgG, HRP-linked Antibody) was diluted 2000-fold with the blocking buffer and then added at 20 µL/well.
1.1.13. Washing: The secondary antibody was discarded, and the plate was washed 3 times with the PBST solution according to the method in step 2. Finally, the reaction plate was patted dry.
1.1.14. Color development: Femto-ECL Substrate A and Femto-ECL Substrate B were mixed at a ratio of 1:1, and the mixture was transferred to the 384-well reaction plate at 25 µL/well. 1.1.15. Reading: The chemiluminescence values (RLU) were measured using Envision.

[2] = system: BRCA wild-type DLD-1 cells; experiment: Anti-proliferative activity against cells (CCK8): DLD-1; type: cell-based; details: Homo sapiens, 72 h + 96 h culture
Procedure: BRCA wild-type DLD-1 cells were cultured in an RPMI-1640 medium containing 10% fetal bovine serum, 100 U/mL penicillin, and 100 µg/mL streptomycin, and incubated in an incubator with 5% saturated CO2 at 37 °C. When the cells grew to 80% confluence, they were collected, centrifuged at 300 g for 10 min, and then plated onto a 96-well plate at 1000 cells/well. After 24 h, different final concentrations (0 µM, 1 µM, and 10 µM) of PARPi were added, and the cells were cultured for another 72 h. The cells were subjected to medium exchange treatment (re-supplemented with PARPi at the same final concentrations) and then cultured for another 96 h. The 96-well plate was taken out.

[3] = system: BRCA-mutated MDA-MB-436 cells; experiment: Anti-proliferative activity against cells (CCK8): MDA-MB-436; type: cell-based; details: Homo sapiens, 72 h + 96 h culture

T1 sequence (P09874 whole entry): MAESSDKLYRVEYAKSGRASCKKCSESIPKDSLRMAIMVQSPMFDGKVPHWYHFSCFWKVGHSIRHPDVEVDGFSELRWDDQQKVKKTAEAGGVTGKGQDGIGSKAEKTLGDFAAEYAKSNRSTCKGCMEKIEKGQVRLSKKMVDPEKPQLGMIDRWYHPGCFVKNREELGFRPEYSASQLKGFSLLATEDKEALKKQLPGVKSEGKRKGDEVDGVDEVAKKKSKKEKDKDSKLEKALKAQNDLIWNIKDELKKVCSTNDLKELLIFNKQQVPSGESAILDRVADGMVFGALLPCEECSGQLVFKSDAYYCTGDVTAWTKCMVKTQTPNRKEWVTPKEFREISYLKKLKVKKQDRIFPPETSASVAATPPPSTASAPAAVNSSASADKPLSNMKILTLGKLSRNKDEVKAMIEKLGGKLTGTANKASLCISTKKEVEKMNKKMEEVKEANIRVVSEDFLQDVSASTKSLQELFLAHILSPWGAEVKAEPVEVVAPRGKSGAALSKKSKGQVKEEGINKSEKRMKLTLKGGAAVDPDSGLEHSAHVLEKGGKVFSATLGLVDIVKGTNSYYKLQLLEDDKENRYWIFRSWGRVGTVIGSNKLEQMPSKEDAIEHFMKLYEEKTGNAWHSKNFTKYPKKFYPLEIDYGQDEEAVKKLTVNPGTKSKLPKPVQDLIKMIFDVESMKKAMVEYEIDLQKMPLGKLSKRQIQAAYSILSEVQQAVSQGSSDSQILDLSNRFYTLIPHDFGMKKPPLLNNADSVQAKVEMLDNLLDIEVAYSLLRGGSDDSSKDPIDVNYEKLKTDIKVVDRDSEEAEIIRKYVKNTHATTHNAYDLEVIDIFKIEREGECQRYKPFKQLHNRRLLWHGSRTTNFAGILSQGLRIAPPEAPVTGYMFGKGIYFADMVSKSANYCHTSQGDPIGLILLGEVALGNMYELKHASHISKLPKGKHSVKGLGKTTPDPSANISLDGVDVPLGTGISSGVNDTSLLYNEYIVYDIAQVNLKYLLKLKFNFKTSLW

| SMILES | IC50 [1] [nM] | IC50 [2] [nM] | IC50 [3] [nM] |
| --- | --- | --- | --- |
| CNC(=O)c1ccc(N2CCN(CC3Cc4[nH]c(=O)c(SC)cc4CO3)CC2)c(F)n1 (stereo not shown) [Example 96, 6-Fluoro-N-methyl-5-(4-((3-(methylthio)-2-oxo-1,5,7,8-tetrahydro-2H-pyrano[4,3-b]pyridin-7-yl)methyl)piperazin-1-yl)picolinamide] | ≤ 50 | > 1000 |  |
| CNC(=O)c1ccc(N2CCN(CC3Cc4[nH]c(=O)c(C5CC5)cc4CO3)CC2)c(F)n1 (stereo not shown) [Example 42, 5-(4-((3-Cyclopropyl-2-oxo-1,5,7,8-tetrahydro-2H-pyrano[4,3-b]pyridin-7-yl)methyl)piperazin-1-yl)-6-fluoro-N-methylpicolinamide] | 50 to 500 | > 1000 |  |
| CCc1nc2c([nH]c1=O)C[C@@H](CN1CCN(c3ccc(C(=O)NC)nc3F)CC1)CC2 [Example 48, (S)-5-(4-((2-Ethyl-3-oxo-3,4,5,6,7,8-hexahydroquinoxalin-6-yl)methyl)piperazin-1-yl)-6-fluor o-N-methylpicolinamide] | ≤ 50 | > 1000 |  |
| CNC(=O)c1ccc(C2=CCN(C[C@H]3CCc4nc(C5CC5)c(=O)[nH]c4C3)CC2)c(F)n1 [Example 56, (S)-1'-((2-Cyclopropyl-3-oxo-3,4,5,6,7,8-hexahydroquinoxaline-6-yl)methyl)-2-fluoro-N-met hyl-1',2',3',6'-tetrahydro-[3,4'-bipyridine]-6-carboxamide] | ≤ 50 | > 1000 |  |
| COC1CC(NC(=O)c2ccc(N3CCN(CC4Cc5[nH]c(=O)c(C)cc5CO4)CC3)c(F)n2)C1 (stereo not shown) [Example 79, 6-Fluoro-N-(3-methoxycyclobutyl)-5-(4-((3-methyl-2-oxo-1,5,7,8-tetrahydro-2H-pyrano[4,3-b]pyridin-7-yl)methyl)piperazin-1-yl)picolinamide] |  | > 1000 | 130 |
| CCc1cc2c([nH]c1=O)C[C@H](CN1CCN(c3ccc(C(=O)NC)nc3F)CC1)OC2 [Example 66, (R)-5-(4-((3-ethyl-2-oxo-1,5,7,8-tetrahydro-2H-pyrano[4,3-b]pyridin-7-yl)methyl)piperazin-1-yl)-6-fluoro-N-methylpicolinamide] |  | > 1000 | 4.5 |
| CNC(=O)c1ccc2c(n1)COC[C@H]1CN(CC3Cc4[nH]c(=O)c(C)cc4CO3)CCN21 (stereo partly drawn) [Example 92, (4aR)-N-Methyl-3-((3-methyl-2-oxo-1,5,7,8-tetrahydro-2H-pyrano[4,3-b]pyridin-7-yl)methyl) -1,2,3,4,4a,5-hexahydro-7H-pyrazino[2,1-c]pyrido[3,2-e][1,4]oxazolidine-9-carboxamide] | ≤ 50 | > 1000 |  |
| CNC(=O)c1ccc(N2CCN(CC3COc4cc(Cl)c(=O)[nH]c4C3)CC2)c(F)n1 (stereo not shown) [Example 86, 5-(4-((7-Chloro-6-oxo-3,4,5,6-tetrahydro-2H-pyrano[3,2-b]pyridin-3-yl)methyl)piperazin-1-yl)-6-fluoro-N-methylpicolinamide] | 50 to 500 | > 1000 |  |
| CNC(=O)c1ccc(N2CCN(C(C)[C@H]3CCc4nc(C)c(=O)[nH]c4C3)CC2)c(F)n1 (stereo partly drawn) [Example 71, (S)-6-Fluoro-N-methyl-5-(4-(1-(2-methyl-3-oxo-3,4,5,6,7,8-hexahydroquinoxalin-6-yl)ethyl)piperazin-1-yl)picolinamide] | ≤ 50 | > 1000 |  |
| CNC(=O)c1ccc(N2CCN(CC3Cc4[nH]c(=O)c(Br)cc4CO3)CC2)c(F)n1 (stereo not shown) [Example 40, 5-(4-((3-Bromo-2-oxo-1,5,7,8-tetrahydro-2H-pyrano[4,3-b]pyridin-7-yl)methyl)piperazin-1-yl)-6-fluoro-N-methylpicolinamide] | ≤ 50 | > 1000 |  |
| CNC(=O)c1ccc(N2CCN(C[C@H]3CCc4nc(C5CC5)c(=O)[nH]c4C3)CC2)c(F)n1 [Example 57, (S)-5-(4-((2-Cyclopropyl-3-oxo-3,4,5,6,7,8-hexahydroquinoxaline-6-yl)methyl)piperazin-1-yl)-6-fluoro-N-methylpicolinamide] | ≤ 50 | > 1000 |  |
